{"source": "ChEMBL document CHEMBL1126527", "about": "“Insight into the catalytic mechanism of KDO8P synthase. Synthesis and evaluation of the isosteric phosphonate mimic of the putative cyclic intermediate” (Bioorg Med Chem Lett, 1993)", "experiment": "Inhibition of homogeneous KDO 8-P synthase of Escherichia coli was determined from Dixon Plot"}
{"smiles": "O=C(O)C1(OP(=O)(O)O)CC(O)C(O)C([C@H](O)COP(=O)(O)O)O1", "note": "(stereo partly specified)", "values": [{"measurement": "Ki", "value": 4.9, "unit": "µM"}]}
